Results reported in US7419984B2, “Pyrimidines and uses thereof” (Cell Therapeutics, Inc., priority 2002, dated 2008).

molecular target: T1, human LPAAT-β (Homo sapiens, UniProt O15120); experiment: LPAAT-β cell-free assay; format: biochemical; details: Sf9 cell membrane overexpressing recombinant LPAAT-β
T1 construct: the full-length human LPAAT-β cDNA was amplified by PCR; poly-histidine tag (N); made in house; host or cells: Sf9 insect cells (baculovirus, pFastBac HTc); the membrane fraction was used as the enzyme
T1 sequence (O15120 24-278): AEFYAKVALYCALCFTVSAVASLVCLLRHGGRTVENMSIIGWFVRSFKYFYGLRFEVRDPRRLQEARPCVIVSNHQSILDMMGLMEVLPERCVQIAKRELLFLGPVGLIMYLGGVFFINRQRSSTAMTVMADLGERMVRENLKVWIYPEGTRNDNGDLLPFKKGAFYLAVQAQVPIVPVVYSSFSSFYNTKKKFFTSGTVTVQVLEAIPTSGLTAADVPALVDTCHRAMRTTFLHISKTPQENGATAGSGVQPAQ
Outline: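 Membranes from Sf9 cells expressing His/myc-tagged full-length human LPAAT-β were used in HEPES-saline pH 7.5 with 1 mg/ml BSA. Compound was added from a 200 μM DMSO stock, and reaction with 18:1-CoA and sn-1-18:1 lysoPA (1 mM stocks) ran 25 min at RT. Released CoA was detected with DTNB at 405 nm; a radiometric variant used 200 μM [14C]18:1-CoA and 200 μM lysoPA.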

Row | SMILES | IC50
1 | Cc1ccc(Br)cc1-c1cc(Nc2ccc(C(F)(F)F)cc2)nc(N)n1 [Example 82, 6-(S-Bromo-2-methyl-phenyl)-N*4*-(4-trifluoromethyl-phenyl)-pyrimidine-2,4-diamine] | 0.1 µM
2 | Cc1ccc(Br)cc1-c1cc(Nc2ccc(Cl)cc2)nc(N)n1 [Example 84, 6-(5-Bromo-2-methyl-phenyl)-N*4*-(4-chloro-phenyl)-pyrimidine-2,4-diamine] | 0.031 µM
3 | Cc1ccc(Br)cc1-c1cc(Nc2ccc(Br)cc2)nc(N)n1 [Example 85, 6-(5-Bromo-2-methyl-phenyl)-N*4*-(4-bromo-phenyl)-pyrimidine-2,4-diamine] | 0.018 µM
4 | Cc1ccc(Br)cc1-c1cc(Nc2ccc(C#N)cc2)nc(N)n1 [Example 86, 4-[2-Amino-6-(5-bromo-2-methyl-phenyl)-pyrimidin-4-ylamino]-benzonitrile] | 0.04 µM
5 | Cc1ccc(Br)cc1-c1cc(Nc2ccc([N+](=O)[O-])cc2)nc(N)n1 [Example 88, 6-(5-Bromo-2-methyl-phenyl)-N*4*-(4-nitro-phenyl)-pyrimidine-2,4-diamine] | 0.021 µM
6 | Nc1nc(Nc2ccc(Cl)cc2)cc(-c2cc(Cl)ccc2OCC(F)(F)F)n1 [Example 89, N*4*-(4-Chloro-phenyl)-6-[5-chloro-2-(2,2,2-trifluoro-ethoxy)-phenyl]-pyrimidine-2,4-diamine] | 0.1 µM
7 | CCOc1ccc(Cl)cc1-c1cc(Nc2ccc(OCCO)cc2)nc(N)n1 [Example 90, 2-{4-[2-Amino-6-(5-chloro-2-ethoxy-phenyl)-pyrimidin-4-ylamino]-phenoxy}-ethanol] | 0.78 µM
8 | Nc1nc(Nc2ccc(Br)cc2)cc(-c2cc(Br)ccc2OCC(F)(F)F)n1 [Example 91, N*4*-(4-Bromo-phenyl)-6-[5-bromo-2-(2,2,2-trifluoro-ethoxy)-phenyl]-pyrimidine-2,4-diamine] | 0.19 µM
9 | CCOc1ccc(Cl)cc1-c1cc(Nc2ccc(CCCO)cc2)nc(N)n1 [Example 92, 3-{4-[2-Amino-6-(5-chloro-2-ethoxy-phenyl)-pyrimidin4-ylamino]-phenyl}-propan-1-ol] | 0.23 µM
10 | CCOc1ccc(Cl)cc1-c1cc(Nc2ccc(CCCCO)cc2)nc(N)n1 [Example 93, 4-{4-[2-Amino-6-(5-chloro-2-ethoxy-phenyl)-pyrimidin4-ylamino]-phenyl}-butan-1-ol] | 0.12 µM
11 | CCOc1ccc(Cl)cc1-c1cc(Nc2ccc(F)cc2)nc(N)n1 [Example 94, 6-(5-Chloro-2-ethoxy-phenyl)-N*4*-(4-fluoro-phenyl)-pyrimidine-2,4-diamine] | 0.032 µM
12 | CCOc1ccc(Cl)cc1-c1cc(Nc2ccc(CCCC(=O)O)cc2)nc(N)n1 [Example 95, 4-{4-[2-Amino-6-(5-chloro-2-ethoxy-phenyl)-pyrimidin4-ylamino]-phenyl}-butyric acid] | 0.31 µM
13 | CCOc1ccc(Cl)cc1-c1cc(Nc2ccc(S(N)(=O)=O)cc2)nc(N)n1 [Example 96, 4-[2-Amino-6-(5-chloro-2-ethoxy-phenyl)-pyrimidin-4-ylamino]-benzenesulfonamide] | 0.073 µM
14 | Cc1ccc(Cl)cc1-c1cc(Nc2ccc(F)cc2)nc(N)n1 [Example 97, 6-(5-Chloro-2-methyl-phenyl)-N*4*-(4-fluoro-phenyl)-pyrimidine-2,4-diamine] | 0.073 µM
15 | Nc1nc(Nc2ccc(Cl)cc2)cc(-c2cc(Cl)cc(Cl)c2Cl)n1 [Example 98, N*4*-(4-Chloro-phenyl)-6-(2,3,5-trichloro-phenyl)-pyrimidine-2,4-diamine] | 0.091 µM
16 | Nc1nc(Nc2ccc(Br)cc2)cc(-c2cc(Cl)cc(Cl)c2Cl)n1 [Example 99, N*4*-(4-Bromo-phenyl)-6-(2,3,5-trichloro-phenyl)-pyrimidine-2,4-diamine] | 0.13 µM
17 | Cc1ccc(Br)cc1-c1cc(Nc2ccc(CCO)cc2)nc(N)n1 [Example 100, 2-{4-[2-Amino-6-(5-bromo-2-methyl-phenyl)-pyrimidin-4-ylamino]-phenyl}-ethanol] | 0.049 µM
18 | Cc1ccc(Br)cc1-c1cc(Nc2ccc(CCCCO)cc2)nc(N)n1 [Example 101, 4-{4-[2-Amino-6-(5-bromo-2-methyl-phenyl)-pyrimidin4-ylamino]-phenyl}-butan-1-ol] | 0.29 µM
19 | Nc1nc(Nc2ccc(C(F)(F)F)cc2)cc(-c2cc(Cl)cc(Cl)c2Cl)n1 [Example 102, 6-(2,3,5-trichloro-phenyl) N*4*-(4-trifluoromethyl-phenyl)-pyrimidine-2,4-diamine] | 0.5 µM
20 | Cc1ccc(Cl)cc1-c1cc(Nc2ccc(C(O)C(F)(F)F)cc2)nc(N)n1 (stereo not shown) [Example 103, 1-{4-[2-Amino-6-(5-chloro-2-methyl-phenyl)-pyrimidin4-ylamino]-phenyl}-2,2,2-trifluoro-ethanol] | 0.054 µM

Row | SMILES | IC50
21 | CC(=NO)c1ccc(Nc2cc(-c3cc(Cl)ccc3C)nc(N)n2)cc1 [Example 104, 1-{4-[2-Amino-6-(5-chloro-2-methyl-phenyl)-pyrimidin-4-ylamino]-phenyl}-ethanone-oxime] | 0.16 µM
22 | Nc1nc(Nc2ccc(Cl)cc2)cc(-c2ccccc2C(F)(F)F)n1 [Example 105, N*4*-(4-Chloro-phenyl)-6-(2-trifluoromethyl-phenyl)-pyrimidine-2,4-diamine] | 1.8 µM
23 | Nc1nc(Nc2ccc(Cl)cc2)cc(-c2ccccc2)n1 [Example 106, N*4*-(4-Chloro-phenyl)-6-phenyl-pyrimidine-2,4-diamine] | 1.1 µM
24 | Cc1ccc(Cl)cc1-c1cc(Nc2ccc([N+](=O)[O-])cc2)nc(N)n1 [Example 108, 6-(5-Chloro-2-methyl-phenyl)-N*4*-(4-nitro-phenyl)-pyrimidine-2,4-diamine] | 0.015 µM
25 | Cc1ccc(Cl)cc1-c1cc(Nc2ccc(CCCO)cc2)nc(N)n1 [Example 109, 3-{4-[2-Amino-6-(5-Chloro-2-methyl-phenyl)-pyrimidin-4-ylamino]-phenyl}-propan-1-ol] | 0.85 µM
26 | Cc1ccc(Cl)cc1-c1cc(Nc2ccc(CCCCO)cc2)nc(N)n1 [Example 110, 4-{4-[2-Amino-6-(5-Chloro-2-methyl-phenyl)-pyrimidin-4-ylamino]-phenyl}-butan-1-ol] | 0.21 µM
27 | CSc1cccc(Nc2cc(-c3cc(Cl)ccc3C)nc(N)n2)c1 [Example 111, 6-(5-Chloro-2-methyl-phenyl)-N*4*-(3-methylsulfanyl-phenyl)-pyrimidine-2,4-diamine] | 0.28 µM
28 | Nc1nc(Nc2ccc(C(F)(F)F)cc2)cc(-c2cc(Cl)cc(Cl)c2)n1 [Example 112, 6-(3,5-Dichloro-phenyl)-N*4*-(4-trifuoromethyl-phenyl)-pyrimidine-2,4-diamine] | 0.64 µM
29 | Cc1ccc(Cl)cc1-c1cc(Nc2ccc(Cl)c(CO)c2)nc(N)n1 [Example 113, {5-[2-Amino-6-(5-chloro-2-methyl-phenyl)-pyrimidin-4-ylamino]-2-chloro-phenyl}-methanol] | 0.19 µM
30 | CCOC(=O)c1cccc(Nc2cc(-c3cc(Cl)ccc3C)nc(N)n2)c1 [Example 114, 3-[2-Amino-6-(5-chloro-2-methyl-phenyl)-pyrimidin4-ylamino]-benzoic acid ethyl ester] | 0.042 µM
31 | CCc1cccc(Nc2cc(-c3cc(Cl)ccc3C)nc(N)n2)c1 [Example 115, 6-(5-Chloro-2-methyl-phenyl)-N*4*-(3-ethyl-phenyl)-pyrimidine-2,4-diamine] | 0.21 µM
32 | Cc1ccc(Cl)cc1-c1cc(Nc2ccc(C(CO)CO)cc2)nc(N)n1 [Example 116, 2-{4-[2-Amino-6-(5-chloro-2-methyl-phenyl)-pyrimidin-2-yl-amino]-phenyl}-propane-1,3-diol] | 1.1 µM
33 | CCOc1ccc(Cl)cc1-c1cc(Nc2ccccc2Cl)nc(N)n1 [Example 117, 6-(5-Chloro-2-ethoxy-phenyl)-N*4*-(2-chloro-phenyl)-pyrimidine-2,4-diamine] | 4.9 µM
34 | Nc1nc(Nc2ccc(Cl)cc2)cc(-c2cccc(Cl)c2Cl)n1 [Example 118, 6-(2,3-Dichloro-phenyl)-N*4*-(4-chloro-phenyl)-pyrimidine-2,4-diamine] | 0.71 µM
35 | Nc1nc(Nc2ccc(C(F)(F)F)cc2)cc(-c2cccc(Br)c2)n1 [Example 119, 6-(3-Bromo-phenyl)-N*4*-(4-trifluoromethyl-phenyl)-pyrimidine-2,4-diamine] | 0.61 µM
36 | CCOc1ccc(Cl)cc1-c1cc(Nc2ccc(CC(C)(C)O)cc2)nc(N)n1 [Example 120, 1-{4-[2-amino-6-(5-chloro-2-ethoxyphenyl)pyrimidin-4-ylamino]phenyl}-2-methyl-propan-2-ol] | 0.18 µM
37 | CCOc1ccc(Cl)cc1-c1cc(Nc2ccc(C(C)=O)cc2)nc(N)n1 [Example 121, 1-{4-[2-amino-6-(5-chloro-2-ethoxyphenyl)pyrimidin-4-ylamino]phenyl}ethanone] | 0.049 µM
38 | CCOc1ccc(Cl)cc1-c1cc(N(C)c2ccc(Cl)cc2)nc(N)n1 [Example 122, 6-(5-chloro-2-ethoxyphenyl)-N*4*-(4-chlorophenyl)-N*4*-methylpyrimidine-2,4-diamine] | 1.2 µM
39 | CC(=O)c1ccc(Nc2cc(-c3cc(Cl)ccc3C)nc(N)n2)cc1 [Example 123, 1-{4-[2-amino-6-(5-chloro-2-methylphenyl)pyrimidin4-ylamino]phenyl}ethanone] | 0.15 µM
40 | CCOc1ccc(Cl)cc1-c1cc(Nc2ccc(S(C)(=O)=O)cc2)nc(N)n1 [Example 124, 6-(5-chloro-2-ethoxyphenyl)-N*4*-(4-methanesulfonylphenyl)pyrimidine-2,4-diamine] | 0.11 µM
